Experiments:
[1] = target: T1, Biotinylated KRAS G12C protein (Homo sapiens, UniProt P01116, C118S/C51S/C80L/G12C); assay: SOS-catalyzed nucleotide exchange assay; format: biochemical; settings: apparent potency; preincubation time of 60 minutes prior to addition of SOS
T1 construct: 183 amino acids; biotin on K10

NCI-H358 cells = assay: Cellular phospho-ERK assay; format: cell-based; settings: Homo sapiens, NCI-H358, 2 h, NCI-H358 cells; 2 hour incubation; ratio of p-Erk vs total Erk; read-out: IC50
Summary of the method: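 15,000 cells/well seeded overnight, then dose-response compound treatment for 2 h at 37 °C in RPMI medium. Lysed and read by AlphaLISA SureFire Ultra multiplex; p-ERK/total ERK ratio as readout, IC50 from 4-parameter logistic fit.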

T1 sequence (P01116 with tags, fused parts or gaps isoform P01116-2 G12C/C51S/C80L/C118S): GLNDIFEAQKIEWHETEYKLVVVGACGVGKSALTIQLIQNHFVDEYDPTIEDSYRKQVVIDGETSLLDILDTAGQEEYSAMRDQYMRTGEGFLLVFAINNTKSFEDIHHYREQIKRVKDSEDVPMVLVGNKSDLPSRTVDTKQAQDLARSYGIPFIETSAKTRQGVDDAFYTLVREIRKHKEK

| SMILES | IC50 [1] [nM] | IC50 (NCI-H358 cells) [nM] |
| --- | --- | --- |
| C=CC(=O)N1CCN(c2cc(C(=O)N[C@H](C)CN(C)C)nc3c2CCN(c2c(Cl)c(C)cc4[nH]ncc24)C3)C[C@@H]1CC#N [Compound 84, 4-((S)-4-acryloyl-3-(cyanomethyl)piperazin-1-yl)-7-(5-chloro-6-methyl-1H-indazol-4-yl)-N—((R)-1-(dimethylamino)propan-2-yl)-5,6,7,8-tetrahydro-1,7-naphthyridine-2-carboxamide] | 0.9 | 96 |
| C=CC(=O)N1CCN(c2cc(C(=O)NC[C@H](C)N)nc3c2CCN(c2cccc4cccc(C)c24)C3)C[C@@H]1CC#N [Compound 86, 4-((S)-4-acryloyl-3-(cyanomethyl)piperazin-1-yl)-N—((S)-2-aminopropyl)-7-(8-methylnaphthalen-1-yl)-5,6,7,8-tetrahydro-1,7-naphthyridine-2-carboxamide] | 11 | 1650 |
| C=CC(=O)N1CCN(c2cc(C(=O)NC(CN)CN)nc3c2CCN(c2cccc4cccc(C)c24)C3)C[C@@H]1CC#N [Compound 87, (S)-4-(4-acryloyl-3-(cyanomethyl)piperazin-1-yl)-N-(1,3-diaminopropan-2-yl)-7-(8-methylnaphthalen-1-yl)-5,6,7,8-tetrahydro-1,7-naphthyridine-2-carboxamide] | 15 | 26700 |
| C=CC(=O)N1CCN(c2cc(C(=O)NC3(CN)CC3)nc3c2CCN(c2cccc4cccc(C)c24)C3)C[C@@H]1CC#N [Compound 88, (S)-4-(4-acryloyl-3-(cyanomethyl)piperazin-1-yl)-N-(1-(aminomethyl)cyclopropyl)-7-(8-methylnaphthalen-1-yl)-5,6,7,8-tetrahydro-1,7-naphthyridine-2-carboxamide] | 4.3 | 1000 |
| C=CC(=O)N1CCN(c2cc(C(=O)NCC3(N)CCCCC3)nc3c2CCN(c2cccc4cccc(C)c24)C3)C[C@@H]1CC#N [Compound 89, (S)-4-(4-acryloyl-3-(cyanomethyl)piperazin-1-yl)-N-((1-aminocyclohexyl)methyl)-7-(8-methylnaphthalen-1-yl)-5,6,7,8-tetrahydro-1,7-naphthyridine-2-carboxamide] | 15 | 5680 |
| C=CC(=O)N1CCN(c2cc(C(=O)NCC3(N)CCOCC3)nc3c2CCN(c2cccc4cccc(C)c24)C3)C[C@@H]1CC#N [Compound 90, (S)-4-(4-acryloyl-3-(cyanomethyl)piperazin-1-yl)-N-((4-aminotetrahydro-2H-pyran-4-yl)methyl)-7-(8-methylnaphthalen-1-yl)-5,6,7,8-tetrahydro-1,7-naphthyridine-2-carboxamide] | 21 | 2340 |
| C=CC(=O)N1CCN(c2cc(C(=O)NCC3(N)CCCCCC3)nc3c2CCN(c2cccc4cccc(C)c24)C3)C[C@@H]1CC#N [Compound 91, (S)-4-(4-acryloyl-3-(cyanomethyl)piperazin-1-yl)-N-((1-aminocycloheptyl)methyl)-7-(8-methylnaphthalen-1-yl)-5,6,7,8-tetrahydro-1,7-naphthyridine-2-carboxamide] | 12 | 7860 |
| C=CC(=O)N1CCN(c2cc(C(=O)NCCC3(N)CCCCC3)nc3c2CCN(c2cccc4cccc(C)c24)C3)C[C@@H]1CC#N [Compound 92, (S)-4-(4-acryloyl-3-(cyanomethyl)piperazin-1-yl)-N-(2-(1-aminocyclohexyl)ethyl)-7-(8-methylnaphthalen-1-yl)-5,6,7,8-tetrahydro-1,7-naphthyridine-2-carboxamide] | 20 | 7200 |
| C=CC(=O)N1CCN(c2cc(C(=O)Nc3ccccc3N3CCNCC3)nc3c2CCN(c2cccc4cccc(C)c24)C3)C[C@@H]1CC#N [Compound 93, (S)-4-(4-acryloyl-3-(cyanomethyl)piperazin-1-yl)-7-(8-methylnaphthalen-1-yl)-N-(2-(piperazin-1-yl)phenyl)-5,6,7,8-tetrahydro-1,7-naphthyridine-2-carboxamide] | 1840 | 24400 |
| C=CC(=O)N1CCN(c2cc(C(=O)Nc3ccccc3CN)nc3c2CCN(c2cccc4cccc(C)c24)C3)C[C@@H]1CC#N [Compound 94, (S)-4-(4-acryloyl-3-(cyanomethyl)piperazin-1-yl)-N-(2-(aminomethyl)phenyl)-7-(8-methylnaphthalen-1-yl)-5,6,7,8-tetrahydro-1,7-naphthyridine-2-carboxamide] | 12 | 6630 |
| C=CC(=O)N1CCN(c2cc(C(=O)N[C@H]3CC[C@@H](NC)CC3)nc3c2CCN(c2cccc4cccc(C)c24)C3)C[C@@H]1CC#N [Compound 96, 4-((S)-4-acryloyl-3-(cyanomethyl)piperazin-1-yl)-N-(cis-4-(methylamino)cyclohexyl)-7-(8-methylnaphthalen-1-yl)-5,6,7,8-tetrahydro-1,7-naphthyridine-2-carboxamide] | 56 | 5470 |
| C=CC(=O)N1CCN(c2cc(C(=O)NC[C@@H]3CCCN3)nc3c2CCN(c2cccc4cccc(C)c24)C3)C[C@@H]1CC#N [Compound 97, 4-((S)-4-acryloyl-3-(cyanomethyl)piperazin-1-yl)-7-(8-methylnaphthalen-1-yl)-N-(((S)-pyrrolidin-2-yl)methyl)-5,6,7,8-tetrahydro-1,7-naphthyridine-2-carboxamide] | 15 | 2480 |
| C=CC(=O)N1CCN(c2cc(C(=O)NC[C@H]3CCCN3)nc3c2CCN(c2cccc4cccc(C)c24)C3)C[C@@H]1CC#N [Compound 98, 4-((S)-4-acryloyl-3-(cyanomethyl)piperazin-1-yl)-7-(8-methylnaphthalen-1-yl)-N-(((R)-pyrrolidin-2-yl)methyl)-5,6,7,8-tetrahydro-1,7-naphthyridine-2-carboxamide] | 6.2 | 1040 |
| C=CC(=O)N1CCN(c2cc(C(=O)NC3(CC#N)CNC3)nc3c2CCN(c2cccc4cccc(C)c24)C3)C[C@@H]1CC#N [Compound 100, (S)-4-(4-acryloyl-3-(cyanomethyl)piperazin-1-yl)-N-(3-(cyanomethyl)azetidin-3-yl)-7-(8-methylnaphthalen-1-yl)-5,6,7,8-tetrahydro-1,7-naphthyridine-2-carboxamide] | 22 | 5880 |
| C=CC(=O)N1CCN(c2cc(C(=O)N[C@H]3CNCC[C@H]3F)nc3c2CCN(c2cccc4cccc(C)c24)C3)C[C@@H]1CC#N [Compound 103, 4-((S)-4-acryloyl-3-(cyanomethyl)piperazin-1-yl)-N-((3S,4R)-4-fluoropiperidin-3-yl)-7-(8-methylnaphthalen-1-yl)-5,6,7,8-tetrahydro-1,7-naphthyridine-2-carboxamide] | 26 | 14900 |
| C=CC(=O)N1CCN(c2cc(C(=O)NCC[C@H]3CCCN3)nc3c2CCN(c2cccc4cccc(C)c24)C3)C[C@@H]1CC#N [Compound 104, 4-((S)-4-acryloyl-3-(cyanomethyl)piperazin-1-yl)-7-(8-methylnaphthalen-1-yl)-N-(2-((R)-pyrrolidin-2-yl)ethyl)-5,6,7,8-tetrahydro-1,7-naphthyridine-2-carboxamide] | 12 | 4900 |
| C=CC(=O)N1CCN(c2cc(C(=O)NC[C@]3(F)CCCNC3)nc3c2CCN(c2cccc4cccc(C)c24)C3)C[C@@H]1CC#N [Compound 107, 4-((S)-4-acryloyl-3-(cyanomethyl)piperazin-1-yl)-N-(((S)-3-fluoropiperidin-3-yl)methyl)-7-(8-methylnaphthalen-1-yl)-5,6,7,8-tetrahydro-1,7-naphthyridine-2-carboxamide] | 54 | 7350 |
